Tests used:
[1] = test system: non-homologous end joining (NHEJ); assay: Green fluorescent protein NHEJ reporter assay, H1299; type: cell-based, Human; conditions: H1299 cells with integrated construct
Method: The green fluorescent protein assay was performed as described by Seluanov et al. To generate reporter cell lines 2 million H1299 cells were transfected with 0.5 μg of linearized NHEJ-I, or HR reporter constructs using the Amaxa Nucleofector; program X-005. G418, at 1 mg/ml, was added to the media 1 day post-transfection. Then Transient expression of the I-SceI endonuclease was used to generate a DNA DSB at the integrated GFP gene sequences. Briefly, H1299 cells containing the NHEJ or the HR constructs treated by 4 h with JIB-04 or DMSO were transfected with the pCMV3xnls-I-SceI (5 μg, functional endonuclease) and a pN1-mCherry plasmid (0.05 μg) as transfection control as previously stated. For the analysis of NHEJ and HR cells were harvested, resuspended in ˜1 ml 1×PBS, put on ice, and run on a BD FACScan instrument. GFP and mCherry fluorescence was analyzed using FlowJo software. Red-versus-green was plotted and DNA repair efficiency was calculated from the number of GFP-positive cells divided by the number of cells mCherry-positive cells.

[2] = test system: H3K9me3 demethylases; assay: Histone demethylase activity in H1299 cellular extracts (H3K9me3); type: cell-based, Human; conditions: JIB-04 4 h, no IR
Method: (§1) For Histone demethylase activity determination 2×10^6 H1299 cells were seeded in P150 plates. After 24 h cells were pretreated with JIB-04 or DMSO for 4 h, irradiated with a total dose of 8 Gy of radiation. Then cells were sonicated (3×4 sec) and equal amounts of protein were incubated with a histone H3K4me3 or H3K9me3 substrate in a reaction buffer containing cofactors for 1 h at 37° C. Finally specific immune-detection of the H3K4me2 or H3K9me2 product using the Epigentek kit P-3081 for H3K9me3 demethylation and P-3083 for H3K4me3 demethylation. Background readings were given by heat inactivated extracts.

[3] = test system: H3K4me3 demethylase Jumonji enzymes; assay: Histone demethylase activity in H1299 cellular extracts (H3K4me3); type: cell-based, Human; conditions: JIB-04 4 h
Method: as §1

[4] = test system: DNA-PKcs; assay: DNA-PKcs p-T2609 foci kinetics after IR; type: cell-based, Human; conditions: H1299; JIB-04 16 nM 4 h, 10 Gy
Method: NSCLCs were seeded onto Lab-Tek II Chamber Slides (Thermo Fisher) and 24 hours later pretreated with JIB-04 or DMSO for 4 h. Then cells were exposed to a total dose of 2 Gy (γH2AX and 53BP1) or 10 Gy (RAD-51 and DNAPKcs p-T2609) radiation. For knockdown and overexpression experiments H1299 cells were transfected using the Amaxa Nucleofector; program X-005. Specifically, 3×10^6 were transfected with siRNA duplexes targeting JMJD2A, JMJD2B, Jarid1A, Jarid1b, scrambled siRNA (250 nM final concentration) or expression vectors pCMVHA-JMJD2A, pCMVHA-JMJD2B, pCMVHA-Jarid1A, pCMVHA-Jarid1B, PC-2 for 72 hours, followed by quantification of expression or irradiation. Then, cells were fixed in 4% formaldehyde/PBS for 15 min, permeabilized with 0.5% Triton X-100 for 15 min on ice, and blocked with 5% bovine serum albumin in PBS for 1 h. The slides were incubated with an antibody against phospho-Histone γH2AX (1:1000, 3 h at room temperature), 53BP1 (1:500, 3 h at room temperature), Rad-51 (1:500, 48 hs 4° C.) or DNAPKcs p-T2609 (1:500, 48 hs 4° C.). Alexa Fluor 488-conjugated goat anti-Rabbit, […] goat anti-mouse or rhodamine red-conjugated goat anti-mouse secondaries antibodies were used (1:1000, 1 h at room temperature). […] Cells were analyzed on a Zeiss upright fluorescent microscope.

[5] = test system: H1355 Parental xenografts; assay: Subcutaneous xenograft drug response, H1355 Parental; type: in vivo, mice; conditions: GSK-J4 100 mg/kg i.p. 5x per week; JIB-04 50 mg/kg oral gavage 3x per week; 4 weeks
Method: Animals were housed under standard, sterile conditions at UTSW animal facility. All experiments were carried out under approved IACUC protocols and followed UTSW animal care procedures. For tumor growth rate studies and docetaxel+cisplatin drug response comparisons, 6-8 week old female NOD/SCID mice were used. For all subsequent in vivo drug response studies, 6 week old female athymic nude mice were used (Charles River Labs, Jackson Labs). Experimental details are provided in supplemental information.
Parental and resistant NSCLC cell lines (1×10^6 cells in PBS or RPMI for H1299; 5×10^6 cells in PBS/matrigel for H1355 and HCC4017) were injected subcutaneously into the right flank of mice. Tumor growth was monitored by caliper measurements and tumor volume was calculated by 0.5×length×width^2). Treatment was started when tumors reached ˜150-200 mm3. Drug/Vehicle therapy was given to tumor volume matched pairs. Docetaxel (3 mg/kg) and cisplatin (3 mg/kg) were given i.p. once a week for 3 weeks. […]

With Clc1ccc(N/N=C(\c2ccccc2)c2ccccn2)nc1 [JIB-04] the NHEJ repair efficiency [1] was ≤ 50 % of normal levels, the “basal H3K9me3 demethylase activity” value [2] was “did not have any effects on basal activity” and the “IR-increased H3K4me3 demethylase activity” value ([3]; IR 8 Gy, 15 min after radiation) was “blocked this increased activity”. The “basal H3K4me3 demethylase activity” value ([3]; no IR) was “did not have any effects on basal activity”, the DNA-PKcs foci resolution [4] was “majority of DNA-PKcs foci remained unresolved even 24 h post irradiation” and the “DNA-PKcs recruitment to DSBs” value [4] was “robust deficiency in DNA-PKcs recruitment with foci not forming until 6 h post IR”. The “change in tumor volume relative to treatment start” value [5] was “continued to grow in volume”.
